Article PMC11220870, “From X-ray crystallographic structure to intrinsic thermodynamics of protein–ligand binding using carbonic anhydrase isozymes as a model system” (IUCrJ, 2024)

Experiments:
CA IX [1] = target: T1, CA IX (Homo sapiens, UniProt Q16790); experiment: Intrinsic Gibbs energy of binding (TSA); conditions: 37°C, Fig. 5
T1 construct: made in house

CA IX [2] = system: CA IX; design: method as in earlier work; conditions: depending on the isozyme, ref Dudutienė et al., 2014, Matulienė et al., 2022, Zakšauskas et al.; cited from earlier work
CA I = CA I (Homo sapiens, UniProt P00915); conditions: intrinsic, 37°C
Protocol: Intrinsic thermodynamic parameters of all pairs were determined by TSA and ITC (for calculations we used Gibbs energy obtained by TSA and enthalpy from ITC measurements).

CA I, sequence (P00915 whole entry): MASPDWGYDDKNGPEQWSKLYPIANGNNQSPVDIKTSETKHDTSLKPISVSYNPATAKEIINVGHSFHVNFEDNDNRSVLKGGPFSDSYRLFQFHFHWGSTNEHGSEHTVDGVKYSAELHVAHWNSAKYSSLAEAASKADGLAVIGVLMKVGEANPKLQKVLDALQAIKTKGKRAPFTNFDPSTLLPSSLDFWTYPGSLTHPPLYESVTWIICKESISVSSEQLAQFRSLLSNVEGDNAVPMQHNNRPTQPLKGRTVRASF

Row | Compound | intrinsic standard Gibbs energy of binding (CA IX [1]) | selectivity toward CA IX over remaining isozymes (CA IX [2]) | ΔHint (CA I)
1 | COC(=O)c1cc(S(N)(=O)=O)c(SC2CCCCC2)cc1Cl [EA2-3] | -17.9 kcal/mol | a hundred- to a million-fold | 
2 | CCCSc1c(F)c(F)c(S(N)(=O)=O)c(F)c1F [VD12-05] |  |  | -17.9 kcal/mol
